From patent publication US20260327191A1, “GSK3a INHIBITORS AND METHODS OF USE THEREOF” (Blueprint Medicines Corporation, priority 2023, published 2026)

Key:
GSK3B [1] = target: T1, GSK3B (Homo sapiens, UniProt P49841); assay: In vitro enzymatic activity assay, GSK3β; type: biochemical; set-up: Full length human GSK3α or GSK3B expressed as N-terminal GST fusion proteins; GST (N); purchased Carna Biosciences (Japan); host or cells: baculovirus host; conditions: 1.0 mM ATP, 1.0 μM peptide substrate, 120 min, 25° C, read-out: Enzyme GSK3β (IC50)
GSK3A = target: T2, GSK3A (Homo sapiens, UniProt P49840); assay: NanoBRET cellular target engagement assay, Nanoluc-GSK3A in HEK293 cells; type: cell-based; conditions: NanoBRET GSK3α IC50, HEK293 cells, tracer K-8, 2 hours, 37° C
T2 construct: expressed in transfected cells

GSK3B [2] = target: T1, GSK3B; assay: NanoBRET cellular target engagement assay, Nanoluc-GSK3B in HEK293 cells; type: cell-based; set-up: expressed in transfected cells; conditions: NanoBRET GSK3β IC50, HEK293 cells, tracer K-8, 2 hours, 37° C
human GSK3α = target: T3, human GSK3α (Homo sapiens, UniProt P49840); assay: In vitro enzymatic activity assay, GSK3α; type: biochemical; conditions: 1.0 mM ATP, 1.0 μM peptide substrate, 120 min, 25° C, read-out: Enzyme GSK3α (IC50)
T3 construct: Full length human GSK3α or GSK3B expressed as N-terminal GST fusion proteins; GST (N); purchased Carna Biosciences (Japan); host or cells: baculovirus host
T3 sequence (P49840 whole entry, the tested form may be a part): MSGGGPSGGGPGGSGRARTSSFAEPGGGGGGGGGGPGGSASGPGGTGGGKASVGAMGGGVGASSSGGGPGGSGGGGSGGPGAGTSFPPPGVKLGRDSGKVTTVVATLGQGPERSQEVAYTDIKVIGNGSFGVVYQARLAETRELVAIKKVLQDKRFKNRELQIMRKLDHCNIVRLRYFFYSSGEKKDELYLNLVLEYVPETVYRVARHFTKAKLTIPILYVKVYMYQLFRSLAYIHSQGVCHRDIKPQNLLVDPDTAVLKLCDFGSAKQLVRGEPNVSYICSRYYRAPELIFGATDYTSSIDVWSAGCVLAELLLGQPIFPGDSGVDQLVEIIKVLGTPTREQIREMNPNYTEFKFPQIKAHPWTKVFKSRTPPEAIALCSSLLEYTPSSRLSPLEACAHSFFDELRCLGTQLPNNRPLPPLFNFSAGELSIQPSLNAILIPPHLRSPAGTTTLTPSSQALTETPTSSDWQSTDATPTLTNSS

T2 sequence (P49840 whole entry): as the sequence (P49840 whole entry, the tested form may be a part) above
T1 sequence (P49841 whole entry, the tested form may be a part): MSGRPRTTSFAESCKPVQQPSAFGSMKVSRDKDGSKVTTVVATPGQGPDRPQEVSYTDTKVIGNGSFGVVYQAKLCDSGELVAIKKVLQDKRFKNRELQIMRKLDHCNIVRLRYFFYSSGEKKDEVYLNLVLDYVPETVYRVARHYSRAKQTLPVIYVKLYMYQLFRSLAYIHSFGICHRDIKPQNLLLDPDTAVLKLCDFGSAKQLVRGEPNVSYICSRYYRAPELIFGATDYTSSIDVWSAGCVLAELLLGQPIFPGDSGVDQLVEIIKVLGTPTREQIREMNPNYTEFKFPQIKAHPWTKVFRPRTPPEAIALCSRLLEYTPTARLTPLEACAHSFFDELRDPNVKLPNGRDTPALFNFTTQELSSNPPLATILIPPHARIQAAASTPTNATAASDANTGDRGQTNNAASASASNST

Row | Structure (SMILES) | IC50 (GSK3B [1]) [nM] | IC50 (GSK3A) [nM] | IC50 (GSK3B [2]) [nM] | IC50 (human GSK3α) [nM]
1 | CN[C@@H](C)c1cncc(NC(=O)c2c(N)ncn(-c3c(Cl)cc(OC4CC4)cc3Cl)c2=O)c1 (single isomer, unassigned) [Example 195, (S)-4-amino-1-(2,6-dichloro-4-cyclopropoxyphenyl)-N-(5-(1-(methylamino)ethyl)pyridin-3-yl)-6-oxo-1,6-dihydropyrimidine-5-carboxamide or (R)-4-amino-1-(2,6-dichloro-4-cyclopropoxyphenyl)-N-(5-(1-(methylamino)ethyl)pyridin-3-yl)-6-oxo-1,6-dihydropyrimidine-5-carboxamide] | 632 | 5.4 | 462 | 11
2 | NCc1cncc(NC(=O)c2c(N)ncn(-c3c(Cl)cc(OC4CC4)cc3Cl)c2=O)c1 [Example 52, 4-amino-N-(5-(aminomethyl)pyridin-3-yl)-1-(2,6-dichloro-4-cyclopropoxyphenyl)-6-oxo-1,6-dihydropyrimidine-5-carboxamide] | 209 | 2.5 | 132 | 4.4
3 | Nc1ncn(-c2c(Cl)cccc2Cl)c(=O)c1C(=O)Nc1cccc([C@@H]2CNC(=O)CN2)c1 (single isomer, unassigned) [Example 189, (R)-4-amino-1-(2,6-dichlorophenyl)-6-oxo-N-(3-(5-oxopiperazin-2-yl)phenyl)-1,6-dihydropyrimidine-5-carboxamide or (S)-4-amino-1-(2,6-dichlorophenyl)-6-oxo-N-(3-(5-oxopiperazin-2-yl)phenyl)-1,6-dihydropyrimidine-5-carboxamide] | 2160 | 69.4 | 4580 | 133
4 | CCNCc1cncc(NC(=O)c2c(N)ncn(-c3c(Cl)cc(COC)cc3Cl)c2=O)c1 [Example 60, 4-amino-1-(2,6-dichloro-4-(methoxymethyl)phenyl)-N-(5-((ethylamino)methyl)pyridin-3-yl)-6-oxo-1,6-dihydropyrimidine-5-carboxamide] | 334 | 3 | 200 | 6.5
5 | COc1cc(Cl)c(-n2cnc(N)c(C(=O)Nc3cncc(C4CCC(C)N4)c3)c2=O)c(Cl)c1 (single isomer, unassigned) [Example 78] | 958 | 7.7 | 703 | 11.4
6 | CCC(N)c1cncc(NC(=O)c2c(N)ncn(-c3c(C)cc(COC)cc3C)c2=O)c1 (single isomer, unassigned) [Example 35, (R)-4-amino-N-(5-(1-aminopropyl)pyridin-3-yl)-1-(4-(methoxymethyl)-2,6-dimethylphenyl)-6-oxo-1,6-dihydropyrimidine-5-carboxamide or (S)-4-amino-N-(5-(1-aminopropyl)pyridin-3-yl)-1-(4-(methoxymethyl)-2,6-dimethylphenyl)-6-oxo-1,6-dihydropyrimidine-5-carboxamide] | 693 | 6.2 | 412 | 14.7
7 | CCOc1cc(Cl)c(-n2cnc(N)c(C(=O)Nc3cncc(C4(N)CCC4)c3)c2=O)c(Cl)c1 [Example 183, 4-amino-N-(5-(1-aminocyclobutyl)pyridin-3-yl)-1-(2,6-dichloro-4-ethoxyphenyl)-6-oxo-1,6-dihydropyrimidine-5-carboxamide] | 576 | 5 | 300 | 7.9
8 | COCc1cc(Cl)c(-n2cnc(N)c(C(=O)Nc3cncc([C@@H](C)N)c3)c2=O)c(Cl)c1 (single isomer, unassigned) [Example 66, (R)-4-amino-N-(5-(1-aminoethyl)pyridin-3-yl)-1-(2,6-dichloro-4-(methoxymethyl)phenyl)-6-oxo-1,6-dihydropyrimidine-5-carboxamide or (S)-4-amino-N-(5-(1-aminoethyl)pyridin-3-yl)-1-(2,6-dichloro-4-(methoxymethyl)phenyl)-6-oxo-1,6-dihydropyrimidine-5-carboxamide] | 349 | 2.9 | 206 | 6
9 | COc1cc(C)c(-n2cnc(N)c(C(=O)Nc3cccc([C@@H]4CCCN4)c3)c2=O)c(Cl)c1 (atropisomer, axis not shown) [Example 36, (S)-4-amino-1-((S)-2-chloro-4-methoxy-6-methylphenyl)-6-oxo-N-(3-(pyrrolidin-2-yl)phenyl)-1,6-dihydropyrimidine-5-carboxamide] | 302 | 4.4 | 290 | 7.3
10 | COc1cc(Cl)c(-n2cnc(N)c(C(=O)Nc3cnc(F)c([C@@H]4CCCCN4)c3)c2=O)c(Cl)c1 (single isomer, unassigned) [Example 76, (S)-4-amino-1-(2,6-dichloro-4-methoxyphenyl)-N-(6-fluoro-5-(piperidin-2-yl)pyridin-3-yl)-6-oxo-1,6-dihydropyrimidine-5-carboxamide or (R)-4-amino-1-(2,6-dichloro-4-methoxyphenyl)-N-(6-fluoro-5-(piperidin-2-yl)pyridin-3-yl)-6-oxo-1,6-dihydropyrimidine-5-carboxamide] | 854 | 9.4 | 591 | 16
11 | COc1cc(C)c(-n2cnc(N)c(C(=O)N[C@@H]3CCC[C@H](CN)C3)c2=O)c(Cl)c1 (single isomer, unassigned) [Example 206, 4-amino-N-((1R,3S)-3-(aminomethyl)cyclohexyl)-1-((S)-2-chloro-4-methoxy-6-methylphenyl)-6-oxo-1,6-dihydropyrimidine-5-carboxamide or 4-amino-N-((1S,3R)-3-(aminomethyl)cyclohexyl)-1-((S)-2-chloro-4-methoxy-6-methylphenyl)-6-oxo-1,6-dihydropyrimidine-5-carboxamide] | 260 | 3.1 | 139 | 9.4
12 | COCc1cc(C)c(-n2cnc(N)c(C(=O)Nc3cncc([C@H]4CCC[C@H](C)N4)c3)c2=O)c(C)c1 (single isomer, unassigned) [Example 102] | 684 | 5 | 584 | 16.5
13 | Cc1cc(C(F)F)cc(C)c1-n1cnc(N)c(C(=O)Nc2cncc([C@H]3CCCCN3)c2)c1=O [Example 97, (R)-4-amino-1-(4-(difluoromethyl)-2,6-dimethylphenyl)-6-oxo-N-(5-(piperidin-2-yl)pyridin-3-yl)-1,6-dihydropyrimidine-5-carboxamide] | 230 | 1.8 | 121 | 3.6
14 | Cc1cc(C#N)cc(Cl)c1-n1cnc(N)c(C(=O)Nc2cccc([C@@H](C)N)c2)c1=O (atropisomer, axis not shown) [Example 8, (R)-4-amino-N-(3-(1-aminoethyl)phenyl)-1-((S)-2-chloro-4-cyano-6-methylphenyl)-6-oxo-1,6-dihydropyrimidine-5-carboxamide] | 204 | 3.3 | 169 | 4.8
15 | COc1ccccc1-n1cnc(N)c(C(=O)Nc2cccc(C3CCCN3)c2N2CCOCC2)c1=O (single isomer, unassigned) [Example 166, (S)-4-amino-1-(2-methoxyphenyl)-N-(2-morpholino-3-(pyrrolidin-2-yl)phenyl)-6-oxo-1,6-dihydropyrimidine-5-carboxamide or (R)-4-amino-1-(2-methoxyphenyl)-N-(2-morpholino-3-(pyrrolidin-2-yl)phenyl)-6-oxo-1,6-dihydropyrimidine-5-carboxamide] | 9380 | 177 | 16100 | 285
16 | CCc1cc(C)c(-n2cnc(N)c(C(=O)Nc3cncc([C@@H](C)N)c3)c2=O)c(C)c1 (single isomer, unassigned) [Example 218, (R)-4-amino-N-(5-(1-aminoethyl)pyridin-3-yl)-1-(4-ethyl-2,6-dimethylphenyl)-6-oxo-1,6-dihydropyrimidine-5-carboxamide or (S)-4-amino-N-(5-(1-aminoethyl)pyridin-3-yl)-1-(4-ethyl-2,6-dimethylphenyl)-6-oxo-1,6-dihydropyrimidine-5-carboxamide] | 421 | 5.6 | 401 | 10.8
17 | CCNCc1cncc(NC(=O)c2c(N)ncn(-c3c(Cl)cc(CC(F)F)cc3Cl)c2=O)c1 [Example 203, 4-amino-1-(2,6-dichloro-4-(2,2-difluoroethyl)phenyl)-N-(5-((ethylamino)methyl)pyridin-3-yl)-6-oxo-1,6-dihydropyrimidine-5-carboxamide] | 318 | 3.7 | 293 | 8
18 | Nc1ncn(-c2c(Cl)cccc2Cl)c(=O)c1C(=O)Nc1cccc(C2CCCN2)c1F (single isomer, unassigned) [Example 167, (S)-4-amino-1-(2,6-dichlorophenyl)-N-(2-fluoro-3-(pyrrolidin-2-yl)phenyl)-6-oxo-1,6-dihydropyrimidine-5-carboxamide or (R)-4-amino-1-(2,6-dichlorophenyl)-N-(2-fluoro-3-(pyrrolidin-2-yl)phenyl)-6-oxo-1,6-dihydropyrimidine-5-carboxamide] | 1810 | 27.2 | 1860 | 45.4
